Measurements published in patent US10538555B2, “Macrocyclic inhibitors of the PD-1/PD-L1 and CD80(B7-1)/PD-L1 protein/protein interactions” (BRISTOL-MYERS SQUIBB COMPANY, priority 2014, dated 2020).
pIC50: −log10 of the molar value. *1 amine or outer side, *2 acyl side, *3 side chain or, on linkers, in order; H or OH if unused. Where a SMILES comes first, the peptide text is derived from it. Bridges are numbered along the chain shown (N, C = ends). [ ]: non-standard residue; d: D form. ξ: configuration not given here. Trp(1-CH2COOH) = N[C@@H](Cc1cn(CC(=O)O)c2ccccc12)C(=O)O; Phe(3,4,5-F3) = N[C@@H](Cc1cc(F)c(F)c(F)c1)C(=O)O; Phe(3,4-F2) = N[C@@H](Cc1ccc(F)c(F)c1)C(=O)O; NMePhe(4-Me) = CN[C@@H](Cc1ccc(C)cc1)C(=O)O; NMePhe(4-F) = CN[C@@H](Cc1ccc(F)cc1)C(=O)O; Morpholine(3S-CO) = O=C(O)[C@@H]1COCCN1; Phe(4-F) = N[C@@H](Cc1ccc(F)cc1)C(=O)O; d(cisHyp) = O=C(O)[C@H]1C[C@@H](O)CN1; Bta = N[C@@H](Cc1csc2ccccc12)C(=O)O; NMeY = CN[C@@H](Cc1ccc(O)cc1)C(=O)O; Hyp = O=C(O)[C@@H]1C[C@@H](O)CN1; NMeF = CN[C@@H](Cc1ccccc1)C(=O)O; Pip(4-aza) = O=C(O)[C@@H]1CNCCN1; X1 = O=C([C@H]1COCCN1[*:1])[*:2]; dNMeF = CN[C@H](Cc1ccccc1)C(=O)O; NMeNle = CCCC[C@H](NC)C(=O)O; Pip = O=C(O)[C@@H]1CCCCN1; dPip = O=C(O)[C@H]1CCCCN1; hSer = N[C@@H](CCO)C(=O)O; NMeA = CN[C@@H](C)C(=O)O; Orn = NCCC[C@H](N)C(=O)O; Dab = NCC[C@H](N)C(=O)O; Dap = NC[C@H](N)C(=O)O; ξC = NC(CS)C(=O)O

Biological target: T1, Human PD-L1/PD-1 (Homo sapiens, UniProt Q9NZQ7)
T1 construct: TVMV protease cleavage site (C); made in house; host or cells: HEK293T cells
T1 sequence (Q9NZQ7 with tags, fused parts or gaps): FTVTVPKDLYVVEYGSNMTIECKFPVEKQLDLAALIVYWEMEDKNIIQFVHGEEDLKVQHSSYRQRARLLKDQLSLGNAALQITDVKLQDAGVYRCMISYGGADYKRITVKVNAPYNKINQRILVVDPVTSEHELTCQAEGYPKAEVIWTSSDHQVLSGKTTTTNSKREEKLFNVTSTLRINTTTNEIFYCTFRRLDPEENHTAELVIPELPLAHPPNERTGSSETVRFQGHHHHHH
Assay: HTRF Human PD-L1/PD-1 binding assay (PD-1-Ig/PD-L1-His)
Conditions: PD-L1-His 10 nM, PD-1-Ig 20 nM; class symbol; read-out: HTRF Human PD-L1/PD-1 Binding Assay IC50 Range
In short: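 HTRF read-out (665/620 nm ratio) after 30 min equilibration with Eu-cryptate anti-Ig mAb (1 nM) and APC anti-His mAb (20 nM). Peptides preincubated 15 min with PD-L1-His (10 nM), then PD-1-Ig (20 nM) added for 15 min.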

Row | pIC50 | Compound
1 | 6.00 to 7.00 | CCCC[C@H]1C(=O)N(C)[C@@H](CCCC)C(=O)N[C@@H](CCC(=O)O)C(=O)NC(C(=O)NCC(N)=O)CSCC(=O)N[C@@H](Cc2ccc(O)cc2)C(=O)N(C)[C@@H](C)C(=O)N[C@@H](CC(N)=O)C(=O)N2CCC[C@H]2C(=O)N[C@@H](Cc2c[nH]cn2)C(=O)N[C@@H](CC(N)=O)C(=O)N2CCC[C@H]2C(=O)N[C@@H](Cc2c[nH]c3ccccc23)C(=O)N[C@@H](CN)C(=O)N[C@@H](Cc2c[nH]c3ccccc23)C(=O)N1C (stereo partly drawn) [Example 9178] ({CH2CO}-Y[NMeA]NPHNPW[Dap]W[NMeNle][NMeNle]E[ξC]G-NH2; thioether N-14)
2 | 8.00 to 9.00 | CCCC[C@H]1C(=O)N(C)[C@@H](CCCC)C(=O)N[C@@H](CCC(=O)O)C(=O)N[C@H](C(=O)NCC(N)=O)CSCC(=O)N[C@@H](Cc2ccc(O)cc2)C(=O)N(C)[C@@H](C)C(=O)N[C@@H](CC(=O)O)C(=O)N2CCC[C@H]2C(=O)N[C@@H](CN)C(=O)N[C@@H](CCC(N)=O)C(=O)N2C[C@H](O)C[C@H]2C(=O)N[C@@H](Cc2c[nH]c3ccccc23)C(=O)N[C@@H](CCN)C(=O)N[C@@H](Cc2cn(CC(=O)O)c3ccccc23)C(=O)N1C [Example 6189] ({CH2CO}-Y[NMeA]DP[Dap]Q[Hyp]W[Dab][Trp(1-CH2COOH)][NMeNle][NMeNle]ECG-NH2; thioether N-14)
3 | 6.00 to 7.00 | CCCC[C@H]1C(=O)N2CCC[C@@H]2C(=O)N[C@@H](CC(=O)O)C(=O)N[C@@H](C(C)C)C(=O)N(C)[C@@H](Cc2ccc(C)cc2)C(=O)N[C@@H](CCC(=O)O)C(=O)N2CCC[C@@H]2C(=O)N[C@@H](Cc2c[nH]c3ccccc23)C(=O)N[C@@H](Cc2ccc(O)cc2)C(=O)N[C@@H](CC(C)C)C(=O)N[C@H](C(=O)NCC(N)=O)CSCC(=O)N[C@@H](Cc2ccc(F)cc2)C(=O)N(C)[C@@H](Cc2ccccc2)C(=O)N1C [Example 10115] ({CH2CO}-[Phe(4-F)][NMeF][NMeNle][dP]DV[NMePhe(4-Me)]E[dP]WYLCG-NH2; thioether N-13)
4 | 7.00 to 8.00 | CCCC[C@H]1C(=O)N2CCOC[C@@H]2C(=O)N[C@@H](CC(=O)O)C(=O)N[C@@H](C(C)C)C(=O)N(C)[C@@H](Cc2ccccc2)C(=O)N[C@@H](CCN)C(=O)N2CCOC[C@@H]2C(=O)N[C@@H](Cc2c[nH]c3ccccc23)C(=O)N[C@@H](Cc2ccc(O)cc2)C(=O)N[C@@H](CCC(=O)O)C(=O)N[C@H](C(=O)NCC(N)=O)CSCC(=O)N[C@@H](Cc2cc(F)c(F)c(F)c2)C(=O)N(C)[C@@H](Cc2ccc(O)cc2)C(=O)N1C [Example 10628] ({CH2CO}-[Phe(3,4,5-F3)][NMeY][NMeNle][X1]DV[NMeF][Dab][X1]WYECG-NH2; thioether N-13)
5 | 7.00 to 8.00 | CCCC[C@H]1C(=O)N2CCC[C@@H]2C(=O)N2CCOC[C@H]2C(=O)N[C@@H](C(C)C)C(=O)N(C)[C@@H](Cc2ccccc2)C(=O)N[C@@H](Cc2ccc(O)cc2)C(=O)N2CCCC[C@@H]2C(=O)N[C@@H](Cc2c[nH]c3ccccc23)C(=O)N[C@@H](Cc2ccc(O)cc2)C(=O)N[C@@H](CC(C)C)C(=O)N[C@H](C(=O)NCC(N)=O)CSCC(=O)N[C@@H](Cc2cc(F)c(F)c(F)c2)C(=O)N(C)[C@@H](Cc2ccccc2)C(=O)N1C [Example 3219] ({CH2CO}-[Phe(3,4,5-F3)][NMeF][NMeNle][dP][Morpholine(3S-CO)]V[NMeF]Y[dPip]WYLCG-NH2; thioether N-13)
6 | 8.00 to 9.00 | CCCC[C@H]1C(=O)N(C)[C@@H](CCCC)C(=O)N[C@@H](C)C(=O)N[C@H](C(=O)NCC(N)=O)CSCC(=O)N[C@@H](Cc2ccc(O)cc2)C(=O)N2CCCC[C@H]2C(=O)N[C@@H](CC(=O)O)C(=O)N2CCC[C@H]2C(=O)N[C@@H](CN)C(=O)N[C@@H](CCC(=O)O)C(=O)N2C[C@H](O)C[C@H]2C(=O)N[C@@H](Cc2c[nH]c3ccccc23)C(=O)N[C@@H](CO)C(=O)N[C@@H](Cc2c[nH]c3ccccc23)C(=O)N1C [Example 1258] ({CH2CO}-Y[Pip]DP[Dap]E[Hyp]WSW[NMeNle][NMeNle]ACG-NH2; thioether N-14)
7 | 8.00 to 9.00 | CCCC[C@H]1C(=O)N2C[C@H](O)C[C@@H]2C(=O)N[C@@H](CC(=O)O)C(=O)N[C@@H](C(C)C)C(=O)N(C)[C@H](Cc2ccccc2)C(=O)N[C@@H](CCN)C(=O)N2C[C@H](O)C[C@@H]2C(=O)N[C@@H](Cc2c[nH]c3ccccc23)C(=O)N[C@@H](Cc2ccc(O)cc2)C(=O)N[C@@H](CCCN)C(=O)N[C@H](C(=O)NCC(N)=O)CSCC(=O)N[C@@H](Cc2ccc(F)c(F)c2)C(=O)N(C)[C@@H](Cc2ccccc2)C(=O)N1C [Example 9311] ({CH2CO}-[Phe(3,4-F2)][NMeF][NMeNle][d(cisHyp)]DV[dNMeF][Dab][d(cisHyp)]WY[Orn]CG-NH2; thioether N-13)
8 | 8.00 to 9.00 | CCCC[C@H]1C(=O)N(C)[C@@H](CCCC)C(=O)N[C@@H](CCCNC(=N)N)C(=O)NC(C(=O)NCC(N)=O)CSCC(=O)N[C@@H](Cc2ccc(O)cc2)C(=O)N(C)[C@@H](C)C(=O)N[C@@H](CC(N)=O)C(=O)N2CCC[C@H]2C(=O)N[C@@H](CO)C(=O)N[C@@H](CCO)C(=O)N2C[C@H](O)C[C@H]2C(=O)N[C@@H](Cc2c[nH]c3ccccc23)C(=O)N[C@@H](CO)C(=O)N[C@@H](Cc2csc3ccccc23)C(=O)N1C (stereo partly drawn) [Example 10035] ({CH2CO}-Y[NMeA]NPS[hSer][Hyp]WS[Bta][NMeNle][NMeNle]R[ξC]G-NH2; thioether N-14)
9 | 8.00 to 9.00 | CCCC[C@H]1C(=O)N2CCC[C@@H]2C(=O)N2CCNC[C@H]2C(=O)N[C@@H](C(C)C)C(=O)N(C)[C@@H](Cc2ccccc2)C(=O)N[C@@H](Cc2ccc(O)cc2)C(=O)N2CCCC[C@@H]2C(=O)N[C@@H](Cc2c[nH]c3ccccc23)C(=O)N[C@@H](Cc2ccc(O)cc2)C(=O)N[C@@H](CC(C)C)C(=O)N[C@H](C(=O)NCC(N)=O)CSCC(=O)N[C@@H](Cc2cc(F)c(F)c(F)c2)C(=O)N(C)[C@@H](Cc2ccccc2)C(=O)N1C [Example 3218] ({CH2CO}-[Phe(3,4,5-F3)][NMeF][NMeNle][dP][Pip(4-aza)]V[NMeF]Y[dPip]WYLCG-NH2; thioether N-13)
10 | 8.00 to 9.00 | CCCC[C@H]1C(=O)N(C)[C@@H](CCCC)C(=O)N[C@@H](CCCNC(=N)N)C(=O)NC(C(=O)NCC(N)=O)CSCC(=O)N[C@@H](Cc2ccc(O)cc2)C(=O)N(C)[C@@H](C)C(=O)N[C@@H](Cc2cnc[nH]2)C(=O)N2CCC[C@H]2C(=O)N[C@@H](CC(N)=O)C(=O)N[C@@H](CC(C)C)C(=O)N2C[C@H](O)C[C@H]2C(=O)N[C@@H](Cc2c[nH]c3ccccc23)C(=O)N[C@@H](CO)C(=O)N[C@@H](Cc2csc3ccccc23)C(=O)N1C (stereo partly drawn) [Example 9147] ({CH2CO}-Y[NMeA]HPNL[Hyp]WS[Bta][NMeNle][NMeNle]R[ξC]G-NH2; thioether N-14)
11 | 8.00 to 9.00 | CCCC[C@H]1C(=O)N2C[C@H](O)C[C@@H]2C(=O)N[C@@H](CC(=O)O)C(=O)N[C@@H](C(C)C)C(=O)N(C)[C@@H](Cc2ccccc2)C(=O)N[C@@H](Cc2ccc(O)cc2)C(=O)N2C[C@H](O)C[C@@H]2C(=O)N[C@@H](Cc2c[nH]c3ccccc23)C(=O)N[C@@H](Cc2ccc(O)cc2)C(=O)N[C@@H](CCN)C(=O)N[C@H](C(=O)NCC(N)=O)CSCC(=O)N[C@@H](Cc2cc(F)c(F)c(F)c2)C(=O)N(C)[C@@H](Cc2ccccc2)C(=O)N1C [Example 9324] ({CH2CO}-[Phe(3,4,5-F3)][NMeF][NMeNle][d(cisHyp)]DV[NMeF]Y[d(cisHyp)]WY[Dab]CG-NH2; thioether N-13)
12 | 8.00 to 9.00 | CCCC[C@H]1C(=O)N(C)[C@@H](CCCC)C(=O)N[C@@H](CC(C)C)C(=O)N[C@H](C(=O)NCC(N)=O)CSCC(=O)N[C@@H](Cc2ccc(O)cc2)C(=O)N(C)[C@@H](C)C(=O)N[C@@H](CC(=O)O)C(=O)N2CCC[C@H]2C(=O)N[C@@H](CN)C(=O)N[C@@H](CCC(=O)O)C(=O)N2C[C@H](O)C[C@H]2C(=O)N[C@@H](Cc2c[nH]c3ccccc23)C(=O)N[C@@H](CCN)C(=O)N[C@@H](Cc2cn(CC(=O)O)c3ccccc23)C(=O)N1C [Example 5180] ({CH2CO}-Y[NMeA]DP[Dap]E[Hyp]W[Dab][Trp(1-CH2COOH)][NMeNle][NMeNle]LCG-NH2; thioether N-14)
13 | 8.00 to 9.00 | CCCC[C@H]1C(=O)N2CCC[C@@H]2C(=O)N[C@@H](CC(=O)O)C(=O)N[C@@H](C(C)C)C(=O)N(C)[C@@H](Cc2ccc(F)cc2)C(=O)N[C@@H](CC(=O)O)C(=O)N2CCC[C@@H]2C(=O)N[C@@H](Cc2c[nH]c3ccccc23)C(=O)N[C@@H](Cc2ccc(O)cc2)C(=O)N[C@@H](CC(C)C)C(=O)N[C@H](C(=O)NCC(N)=O)CSCC(=O)N[C@@H](Cc2ccc(F)cc2)C(=O)N(C)[C@@H](Cc2ccccc2)C(=O)N1C [Example 10110] ({CH2CO}-[Phe(4-F)][NMeF][NMeNle][dP]DV[NMePhe(4-F)]D[dP]WYLCG-NH2; thioether N-13)
14 | 7.00 to 8.00 | CCCC[C@H]1C(=O)N(C)[C@@H](CCCC)C(=O)N[C@@H](C)C(=O)NC(C(=O)NCC(N)=O)CSCC(=O)N[C@@H](Cc2ccc(O)cc2)C(=O)N(C)[C@@H](C)C(=O)N[C@@H](CC(N)=O)C(=O)N2CCC[C@H]2C(=O)N[C@@H](CC(N)=O)C(=O)N[C@@H](CC(C)C)C(=O)N2CCC[C@H]2C(=O)N[C@@H](Cc2c[nH]c3ccccc23)C(=O)N[C@@H](CO)C(=O)N[C@@H](Cc2c[nH]c3ccccc23)C(=O)N1C (stereo partly drawn) [Example 9132] ({CH2CO}-Y[NMeA]NPNLPWSW[NMeNle][NMeNle]A[ξC]G-NH2; thioether N-14)

Same assay, conditions: PD-L1-His 10 nM, PD-1-Ig 20 nM; read-out: HTRF Human PD-L1/PD-1 Binding Assay IC50

Row | pIC50 | Compound
15 | 5.54 | CCCC[C@H]1NC(=O)[C@H](Cc2c[nH]c3ccccc23)NC(=O)[C@H](CO)NC(=O)[C@H](Cc2c[nH]c3ccccc23)NC(=O)[C@@H]2C[C@@H](O)CN2C(=O)[C@H](CC(C)C)NC(=O)[C@H](Cc2cnc[nH]2)NC(=O)[C@@H]2CCCN2C(=O)[C@H](CC(N)=O)NC(=O)[C@H](C)N(C)C(=O)[C@H](Cc2ccc(O)cc2)NC(=O)CSCC(C(=O)NCC(N)=O)NC(=O)[C@H](CCC(=O)O)NC(=O)[C@H](CCCC)N(C)C1=O (stereo partly drawn) [Example 10131]
